Reference: paper PMC8370991, “Structural basis for the inhibition of HTLV-1 integration inferred from cryo-EM deltaretroviral intasome structures” (Nature Communications, 2021)
Read-outs that look alike come from different tables or passages of the source.

Tested on: HTLV-1
Experiment: MT-2-Jurkat cell-to-cell HTLV-1 infection, proviral load by qPCR
Type: cell-based
Description: Six of the most promising compounds were selected for assessment of their efficacy in inhibiting HTLV-1 viral infection. To this end, we employed an MT-2-Jurkat co-culture relying on cell-to-cell-based HTLV-1 transmission, which we successfully used in a previous study. In this assay format, the infection of Jurkat cells is measured via real-time quantitative PCR (qPCR) determination of the proviral load (PVL). […] A block in the integration reaction was confirmed by Alu-qPCR experiments (Supplementary Fig. 6). […] We suspect this is owing to a more efficient uptake of BIC than RAL by Jurkat T cells.
MT-2 and E6.1 Jurkat T-cell lines (ATCC) were used for the experiments. The cells were cultured at 37 °C with 5% CO2 and maintained in Roswell Park Memorial Institute (RPMI) media supplemented with 10% fetal bovine serum (FBS), 100 U penicillin, 100 μg/mL streptomycin and 0.25 μg/mL fungizone.
The HTLV-1 cell-to-cell infection was performed as previously described; Jurkat T cells were counted and diluted in complete RPMI to a final concentration of 0.25 × 10^6 cells/ml and pre-treated with INSTI drugs (final concentration ranging from 0.2 pM to 2 μM) or DMSO as a control for 24 h. MT-2 cells were resuspended in RPMI at a concentration of 2 × 10^6 cells/ml and subjected to a nonlethal γ-radiation dose of 400 Gy. Cells were resuspended at a concentration of 2 × 10^6 cells/ml in serum-free RPMI supplemented with the corresponding INSTI drug. Co-culture of 0.5 × 10^6 for each cell line was carried out for 16 h, after which cells were washed in PBS and resuspended in 1 ml of depletion buffer (PBS, 0.1% FBS and 2 mM EGTA). MT-2 cells were depleted from the culture by means of anti-CD25 magnetic beads (DynabeadsTM CD25, Thermo Fisher). Depletion efficiency was confirmed via flow cytometry as described previously. Jurkat cells were cultured for 2 weeks in complete RPMI supplemented with the drugs and genomic DNA was extracted (DNeasy kit, Qiagen) and stored at −20 °C for subsequent analysis. All the experiments were done in triplicate.
The PVL was measured as previously described[9],[53],[54]. Jurkat genomic DNA was quantified and diluted to a concentration of 5 ng/μL. Real-time qPCR analysis were conducted on 20 ng of gDNA to measure the level of HTLV-1 tax and gapdh genes (Supplementary Table 5). For the standard curve, the gDNA from an HTLV-1 naturally infected T-cell clone (clone 11.50, courtesy of professor Charles Bangham), which has one copy of tax and two of gapdh, was used. The integrated provirus copy number was calculated as follows: (tax copy numbers)/(2×gapdh copy number)[53], and normalised to the DMSO-treated control which was set to 100%. The PVL data were fitted to a dose–response curve in Prism 7 and the EC50 was calculated. Alu-PCR was performed as previously described in ref. [55]. In brief, the first PCR reaction was done with Phusion polymerase starting from 80 ng of gDNA using the ALU-specific primers (Alu-F/Gag-R). The nested PCR was run diluting the amplificated product 1:50. The reaction was done as a qPCR using Gag-specific primers (Gag-R/Gag-F) and the Luna SYBR dye reaction mix (New England Biolabs). The integrated provirus copy numbers were normalised to GAPDH and Jurkat cells treated with DMSO and infected with HTLV-1 were set to 100%. Experiments were done in triplicate.

[1] = HTLV-1 infection of Jurkat T cells
[2] = MT-2-Jurkat cell-to-cell infection, proviral load, n = 3, read-out: HTLV-1 EC50 ± stdev
[3] = Replicate 1, read-out: HTLV-1 infection EC50
[4] = Replicate 2, read-out: HTLV-1 infection EC50
[5] = Replicate 3, read-out: HTLV-1 infection EC50

SMILES | improvement in EC50 compared with RAL [1] | EC50 [2] [nM] | EC50 [3] [nM] | EC50 [4] [nM] | EC50 [5] [nM] | lower activity in blocking HTLV-1 infection compared with RAL [1] | EC50 (Primate T-lymphotropic virus 1, read-out: HTLV-1 EC50 ± stdev, MT-2-Jurkat cell-to-cell infection, proviral load, n = 3) [nM] | EC50 (Primate T-lymphotropic virus 1, read-out: HTLV-1 infection EC50, Replicate 1) [nM] | EC50 (Primate T-lymphotropic virus 1, read-out: HTLV-1 infection EC50, Replicate 2) [nM] | EC50 (Primate T-lymphotropic virus 1, read-out: HTLV-1 infection EC50, Replicate 3) [nM]
Nc1c(C(=O)NCc2ccc(F)cc2F)c(=O)n(O)c2ncc(CCS(=O)(=O)c3ccccc3)cc12 [XZ446, 4-amino-N-(2,4-difluorobenzyl)-1-hydroxy-2-oxo-6-(2-(phenylsulfonyl)ethyl)-1,2-dihydro-1,8-naphthyridine-3-carboxamide] | ~2.5- to fivefold and two- to fivefold | 2.57 ± 0.81 | 3.46 | 2.16 | 1.94 |  |  |  |  | 
Nc1c(C(=O)NCc2ccc(F)cc2F)c(=O)n(O)c2ncc(CCC(=O)NCCO)cc12 [XZ448, 4-amino-N-(2,4-difluorobenzyl)-1-hydroxy-6-(3-((2-hydroxyethyl)amino)-3-oxopropyl)-2-oxo-1,2-dihydro-1,8-naphthyridine-3-carboxamide] |  | 139 ± 81 | 125 | 146 | 116 | ~ 20 fold |  |  |  | 
CN(C)C(=O)CCc1cnc2c(c1)c(N)c(C(=O)NCc1ccc(F)cc1F)c(=O)n2O [XZ450, 4-amino-N-(2,4-difluorobenzyl)-6-(3-(dimethylamino)-3-oxopropyl)-1-hydroxy-2-oxo-1,2-dihydro-1,8-naphthyridine-3-carboxamide] | ~2.5- to fivefold and two- to fivefold |  |  |  |  |  | 1.67 ± 1.52 | 2.34 | 1.89 | 1.25
CC(C)n1c(C(=O)N(C)C)c2c(c(O)c1=O)C(=O)N(Cc1ccc(F)c(Cl)c1)CC2 [XZ236, 6-(3-chloro-4-fluorobenzyl)-4-hydroxy-2-isopropyl-N,N-dimethyl-3,5-dioxo-2,3,5,6,7,8-hexahydro-2,6-naphthyridine-1-carboxamide, reference compound] |  | 3.74 ± 1.42 | 5.38 | 1.48 | 4.41 |  |  |  |  | 
Nc1c(C(=O)NCc2ccc(F)cc2F)c(=O)n(O)c2ncc(CCCO)cc12 [XZ423, 4-amino-N-(2,4-difluorobenzyl)-1-hydroxy-6-(3-hydroxypropyl)-2-oxo-1,2-dihydro-1,8-naphthyridine-3-carboxamide] |  | 4.11 ± 1.52 | 3.95 | 3.49 | 1.75 |  |  |  |  | 
